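Compound exposure: 48 hours, 5 concentrations, 96-well plates. TGI marks complete inhibition of growth.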
What was measured:
Assay in all cases: NCI anticancer screen, dose series, 48 h
HCT-15 colon = system: HCT-15 colon
NCI-H23 lung = system: NCI-H23 lung
NCI/ADR-RES ovarian = system: NCI/ADR-RES ovarian
HOP-92 NSCLC = system: HOP-92 NSCLC
SNB-75 CNS = system: SNB-75 CNS
M14 melanoma = system: M14 melanoma
LOX IMVI melanoma = system: LOX IMVI melanoma
UO-31 renal = system: UO-31 renal
ACHN renal = system: ACHN renal
786-0 renal = system: 786-0 renal
OVCAR-5 ovarian = system: OVCAR-5 ovarian
MCF7 breast = system: MCF7 breast
SW-620 colon = system: SW-620 colon
A549 NSCLC = system: A549 NSCLC
SF-295 CNS = system: SF-295 CNS
SF-539 CNS = system: SF-539 CNS
UACC-257 melanoma = system: UACC-257 melanoma
SN12C renal = system: SN12C renal
CAKI-1 renal = system: CAKI-1 renal

Compound | TGI (HCT-15 colon) [µM] | TGI (NCI-H23 lung) [µM] | TGI (NCI/ADR-RES ovarian) [µM] | TGI (HOP-92 NSCLC) [µM] | TGI (SNB-75 CNS) [µM] | TGI (M14 melanoma) [µM] | TGI (LOX IMVI melanoma) [µM] | TGI (UO-31 renal) [µM] | TGI (ACHN renal) [µM] | TGI (786-0 renal) [µM] | TGI (OVCAR-5 ovarian) [µM] | TGI (MCF7 breast) [µM] | TGI (SW-620 colon) [µM] | TGI (A549 NSCLC) [µM] | TGI (SF-295 CNS) [µM] | TGI (SF-539 CNS) [µM] | TGI (UACC-257 melanoma) [µM] | TGI (SN12C renal) [µM] | TGI (CAKI-1 renal) [µM]
O=C(O)c1ccccc1/C=N/NC1=NCCCCN1 | > 100 | > 100 | > 100 | > 100 | > 100 | > 100 | > 100 | > 100 | > 100 | > 100 | > 100 | > 100 | > 100 | > 100 | > 100 | > 100 | > 100 | – | –
Cc1ccc(/C=C/C(=O)c2cc(CN(C)C)c(O)c(CN(C)C)c2)cc1 | 45.4 | > 100 | 79.1 | 70.8 | 88.9 | 39.1 | 21.2 | 60 | 90.8 | 73.9 | > 100 | 50.1 | 38.2 | 58.5 | 27.7 | 34.9 | 27.4 | 44 | 50.3
C/C=C/C(=O)N1C(=O)OC[C@@H]1c1ccccc1 | 53.8 | 32.8 | 44.4 | 37.2 | 27.1 | 36.6 | 35 | 35.2 | 33.5 | 35 | 31.7 | 31.5 | 54.6 | 36.3 | > 100 | 38.5 | 39.9 | 37.2 | 32.6
Cn1c2c(c3ccccc31)CC(=S)N1CCCC(CC2O)C1 (stereo not drawn) | > 100 | > 100 | > 100 | > 100 | > 100 | – | > 100 | > 100 | > 100 | > 100 | – | > 100 | > 100 | > 100 | > 100 | > 100 | > 100 | > 100 | > 100
Cc1c2c(n(CCN(C)C)c1C)NN=C(C#N)S2(=O)=O | > 100 | > 100 | > 100 | – | > 100 | > 100 | > 100 | > 100 | > 100 | > 100 | > 100 | > 100 | > 100 | > 100 | – | > 100 | > 100 | > 100 | –
COc1ccc2c(c1)CCC1=CC3(CCC12C)SCCS3 (stereo not drawn) | > 10 | > 10 | > 10 | > 10 | > 10 | > 10 | > 10 | – | > 10 | > 10 | – | > 10 | > 10 | > 10 | > 10 | – | > 10 | > 10 | > 10
O=C(O)CCCOc1cc(-c2ccccc2F)nc2cc3c(cc12)OCO3 | > 100 | > 100 | > 100 | 95.6 | > 100 | > 100 | > 100 | – | – | > 100 | > 100 | > 100 | > 100 | > 100 | – | 63.2 | – | > 100 | > 100
NC(=O)NC(=O)c1cccc(NC(=O)CBr)c1 | 0.384 | 1.54 | 0.799 | 1.75 | 1.69 | 0.549 | 0.193 | 1.68 | 1.4 | < 0.0333 | 1.89 | 1.61 | 3.3 | 7.6 | 2.7 | – | 0.623 | 0.391 | 0.321
N#CC(Cc1ccccc1Br)N(CCC1=CCCCC1)C(c1ccccc1)c1ccccc1 (stereo not drawn) | > 100 | > 100 | > 100 | > 100 | > 100 | > 100 | – | > 100 | > 100 | > 100 | > 100 | > 100 | > 100 | > 100 | > 100 | – | > 100 | – | > 100
CN1CCC23c4c5ccc(O)c4OC2c2[nH]c4ccccc4c2CC3(O)C1C5 (stereo not drawn) | > 100 | > 100 | > 100 | 40.5 | > 100 | 34.8 | 54.7 | 30.9 | 65.1 | 39.6 | > 100 | > 100 | > 100 | > 100 | > 100 | – | 36.8 | > 100 | > 100
NNc1[nH]c(=S)[nH]c1C(N)=O | > 100 | – | > 100 | – | > 100 | > 100 | > 100 | > 100 | – | > 100 | > 100 | > 100 | > 100 | > 100 | > 100 | > 100 | > 100 | > 100 | –
O=C(Nc1ccccc1F)c1cc2ccc(O)cc2oc1=Nc1cccc(C(F)(F)F)c1 | 10.9 | 4.44 | 9.93 | – | – | 26 | 6.52 | 15.5 | 19.4 | 17.8 | > 100 | > 100 | > 100 | > 100 | > 100 | 22.3 | > 100 | – | 19.7
COc1cccc(C2C3=C(COC3=O)Oc3cc4c(cc32)OCO4)c1 (stereo not drawn) | > 42.4 | 24.9 | > 6.6 | – | > 100 | > 100 | > 22.1 | > 100 | > 53.1 | > 66.4 | > 90 | > 100 | > 100 | > 100 | 0.228 | 0.0667 | > 100 | > 100 | > 100
COC(=O)[C@@H]1C[C@@H]2c3ccccc3N(S(=O)(=O)c3ccccc3)[C@@H]2N1C(=O)OC | > 100 | > 100 | > 100 | > 100 | > 100 | – | > 100 | > 100 | > 100 | > 100 | > 100 | > 100 | > 100 | > 100 | > 100 | > 100 | > 100 | > 100 | > 100
